Assay results as given in patent US12385839B2, “Use of protein in predicting drug properties” (priority 2021, dated 2025).
pKd: −log10 of the molar value. Read-outs that look alike come from different tables or passages of the source.

How the values were obtained:
[1] = molecular target: T1, human serum albumin (HSA) (Homo sapiens, UniProt P02768); test: Fluorescence emission spectrum (quenching) of HSA with carbamate pesticides; type: binding; details: for Ksv (37°) / ΔG(37°) / Binding distance/r / Number of binding sites/n: modelling table; for Kq / Ksv / n (number of binding sites) / pKd: pH 7.4; for R (binding distance): Förster energy transfer; for fluorescence of HSA quenched by pesticide: titration of pesticide; for ΔH^0 / ΔS^0: Van't Hoff, 296-310 K
Experimental: the mixed solution to be tested was preheated at […] for 3 minutes, and the emission spectrum of HSA with carbamate pesticides was measured at 300-500 nm . The excitation wavelength was set at 280 nm , and the slit width for both excitation and emission was 15 nm; the HSA concentration was kept constant at 5×10^−7 M, and the pesticide concentration was (0-105)×10^−7 M.
The internal filtering effect of fluorescence signal was corrected according to the following formula: Fcor=Fobsexp[(Aex+Aem)/2] (1);
in this formula, Fcor and Fobs represent corrected fluorescence signal and observed fluorescence signal, respectively, and Aex and Aem represent absorbance of the mixed solution to be tested at excitation wavelength and emission wavelengths, respectively; the quenching constant, number of binding sites, binding constant, free energy and binding distance of different drugs were obtained by fluorescence emission spectra, and a BP neural network model was obtained. Specifically, they were obtained as follows:
There is a linear relationship between F0/F and [Q] to distinguish whether it is static quenching or dynamic quenching. The fluorescence quenching data are analyzed by Stern-Volmer equation to clarify the quenching mechanism: F0/F=1+KSV[Q]=1+Kqτ0[Q] (2);
in the formula, F0 and F are fluorescence signals […] quencher, respectively. Ksv is Stern-Volmer quenching constant; Kq is a quenching rate constant of biomolecules; τ0 is the average lifetime of biomolecules without quencher (about 10^−8 s); [Q] is the concentration of quencher.
The maximum dynamic quenching rate constant of all kinds of quenchers on polymers was 2.0×10^10 L·mol^−1·s^−1. Static quenching and dynamic quenching could be judged according to this value. If K^q was greater than 2.0×10^10 L·mol^−1·s^−1, it belonged to static quenching. Otherwise, it belonged to dynamic quenching.
In this part, the binding sites and binding constants between carbamate pesticides and HSA were calculated. The following formula was used to calculate the number of binding sites (n) and the binding constant (Ka) of carbamate pesticides and HSA: log[(F0−F)/F]=log Ka+nlog[Q] (3);
The interactions between biological molecules and drug molecules were weak intermolecular interactions, including hydrogen bonds, van der Waals forces, electrostatic forces and hydrophobic interactions. By using Van't Hoff equation, the thermodynamic constants of drug-protein interaction were obtained, and the main types of drug-protein interaction were judged according to the changes of binding constants under different conditions. LnK=−ΔH^0/RT+ΔS^0/R (4); ΔG^0=ΔH^0−TΔS^0 (5);
There is a relationship among energy transfer efficiency E, distance r between energy donor and energy receptor and energy transfer distance R0. E=1−F/F0=R0^6/(R0^6+r^6) (6);
E represents the transfer efficiency between donor and receptor, r is the average distance between donor and receptor, and R0 is the critical distance when the transfer efficiency is 50%. R0^6=8.79×10^−K^2N^−4φJ (7)
K^2 is the orientation related to the geometry of donor and receptor of dipole. For random orientation in fluid, K^2=2/3; N is the average refractive index of the medium in the wavelength range with obvious spectral overlap, and the refractive index of water and organic matter is 1.336; φ is the quantum yield of donor, and the quantum yield of tryptophan in HSA is about 0.118; J represents the influence of spectral overlap between the emission spectrum of the donor and the absorption spectrum of the receptor, and can be calculated by the following formula: j=ΣF(λ)ϵ(λ)λ^4Δλ/ΣF(λ) Δλ (8);
F(λ) is the corrected fluorescence signal of the donor in the wavelength range from λ to (λ+Δλ), while ϵ(λ) is the extinction coefficient of the receptor at λ.

[2] = molecular target: T1, human serum albumin (HSA); test: Circular dichroism spectrum, secondary structure (α-helix content) of HSA; details: HSA 2×10^−6 M
Experimental: the mixed solution to be tested was preheated at […] for 2-5 minutes, and the CD spectrum of HSA was recorded in the wavelength range of 200-500 nm . The concentration of HSA was kept at 2×10^−6 M, and the pesticide was (0-20)×10^−6 m. Firstly, HSA was measured, and then the ratio of HSA to pesticides needed to be determined specifically, which was preliminarily determined according to the ratio of 1:1, 1:2 and 1:3.
According to the following equation, the result of CD spectrum was usually expressed as the mean residue ellipticity (MRE), and the unit was deg·cm^2·dmol^−1. MRE=ObservedCD(mdeg)/(10Cpnl) (9);
in which Cp is the molar concentration of protein, n is the number (585) of amino acid residues, and 1 is the path length (1 mm). The α helicity of free and bound HSA is calculated from MRE values using the following formula: α−Helix(%)=[(−MRE208−4000)×100]/(33000-4000) (10)
in which the MRE208 is the MRE value observed at 208 nm , 4000 is the MRE value of random coil conformation at 208 nm , and […] is the MRE value of pure α helix at 208 nm .

[3] = cited from earlier work; for LD50: modelling table; for Toxicity: toxicity grade by LD50, trailing figure = number of pesticides in group

T1 sequence (P02768 25-609): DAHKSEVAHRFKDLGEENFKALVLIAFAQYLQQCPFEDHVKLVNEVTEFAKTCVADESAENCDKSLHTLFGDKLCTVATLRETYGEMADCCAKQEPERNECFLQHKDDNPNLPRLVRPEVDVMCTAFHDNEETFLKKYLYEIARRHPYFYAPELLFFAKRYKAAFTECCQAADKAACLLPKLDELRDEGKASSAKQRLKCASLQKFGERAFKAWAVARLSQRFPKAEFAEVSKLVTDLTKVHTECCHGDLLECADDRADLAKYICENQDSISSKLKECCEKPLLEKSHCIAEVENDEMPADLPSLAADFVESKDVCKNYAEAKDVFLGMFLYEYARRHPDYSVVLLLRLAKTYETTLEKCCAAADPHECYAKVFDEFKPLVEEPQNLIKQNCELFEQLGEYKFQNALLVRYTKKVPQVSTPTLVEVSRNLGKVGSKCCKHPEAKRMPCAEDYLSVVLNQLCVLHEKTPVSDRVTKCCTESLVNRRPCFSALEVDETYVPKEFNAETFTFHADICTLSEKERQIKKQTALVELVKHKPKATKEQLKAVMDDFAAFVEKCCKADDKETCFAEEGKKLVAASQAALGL

Row | Structure (SMILES) | Ksv (37°) [1] | ΔG(37°) [1] | ΔG^0 ([1]; 296 K) [kcal/mol] | Kq ([1]; 296 K) | Ksv ([1]; 296 K) | n (number of binding sites) ([1]; 296 K) | ΔG^0 ([1]; 303 K) [kcal/mol] | Kq ([1]; 303 K) | Ksv ([1]; 303 K) | n (number of binding sites) ([1]; 303 K) | ΔG^0 ([1]; 310 K) [kcal/mol] | R (binding distance) ([1]; 310 K) [nm] | Kq ([1]; 310 K) | Ksv ([1]; 310 K) | n (number of binding sites) ([1]; 310 K) | fluorescence of HSA quenched by pesticide ([1]; 310 K) | ΔH^0 [1] [kcal/mol] | ΔS^0 [1] [J · mol^−1 · K^−1] | Binding distance/r [1] | Number of binding sites/n [1] | other results
1 | CNC(=O)O/N=C(\C)C(C)S(C)(=O)=O (stereo not drawn) [Butoxycarboxim, butoxycarboxim] | 62644.83638 | −20.24 | -3.7366 | 2.888 ± 0.064 10^12 M^−1s^−1 | 2.888 ± 0.064 10^4 M^−1 | 0.658 ± 0.002 | -4.2875 | 4.798 ± 0.112 10^12 M^−1s^−1 | 4.798 ± 0.112 10^4 M^−1 | 0.679 ± 0.002 | -4.8384 | 1.964 | 6.264 ± 0.074 10^12 M^−1s^−1 | 6.264 ± 0.074 10^4 M^−1 | 0.725 ± 0.001 | quenched | 19.556 | 329.251 | 1.964 | 0.725 | pKd ([1]; 296 K, read-out: Ka (binding constant)): 2.77; pKd ([1]; 303 K, read-out: Ka (binding constant)): 3.08; pKd ([1]; 310 K, read-out: Ka (binding constant)): 3.42; α-helix contents ([2]; 5:1 (Pesticide:HSA)): 53.753%; α-helix contents ([2]; 10:1 (Pesticide:HSA)): 52.790%; LD50 [3]: 458 mg/kg; Toxicity [3]: Moderately
2 | CNC(=O)Oc1cccc2c1OC(C)(C)C2 [Carbofuran, carbofuran] | 87696.31575 | −25.15 | -5.0459 | 5.563 ± 0.123 10^12 M^−1s^−1 | 5.563 ± 0.123 10^4 M^−1 | 0.797 ± 0.002 | -5.5287 | 7.239 ± 0.082 10^12 M^−1s^−1 | 7.239 ± 0.082 10^4 M^−1 | 0.822 ± 0.002 | -6.0117 | 1.938 | 8.770 ± 0.088 10^12 M^−1s^−1 | 8.770 ± 0.088 10^4 M^−1 | 0.862 ± 0.002 | quenched | 15.374 | 288.639 | 1.938 | 0.8616 | pKd ([1]; Ka (binding constant), 296 K): 3.73; pKd ([1]; Ka (binding constant), 303 K): 3.97; pKd ([1]; Ka (binding constant), 310 K): 4.25; α-helix contents ([2]; 5:1 (Pesticide:HSA)): 51.483%; α-helix contents ([2]; 10:1 (Pesticide:HSA)): 48.304%; LD50 [3]: 5 mg/kg; Toxicity [3]: Highly
3 | CCSCc1ccccc1OC(=O)NC [Ethiofencarb, ethiofencarb] | 41346.56830 | −17.7 | -3.4355 | 2.562 ± 0.137 10^12 M^−1s^−1 | 2.562 ± 0.137 10^4 M^−1 | 0.613 ± 0.003 | -3.8329 | 3.301 ± 0.074 10^12 M^−1s^−1 | 3.301 ± 0.074 10^4 M^−1 | 0.645 ± 0.009 | -4.2302 | 2.363 | 4.135 ± 0.166 10^12 M^−1s^−1 | 4.135 ± 0.166 10^4 M^−1 | 0.674 ± 0.002 | quenched | 13.365 | 237.483 | 2.363 | 0.6742 | pKd ([1]; Ka (binding constant), 296 K): 2.54; pKd ([1]; Ka (binding constant), 303 K): 2.77; pKd ([1]; Ka (binding constant), 310 K): 2.98; α-helix contents ([2]; 5:1 (Pesticide:HSA)): 49.087%; α-helix contents ([2]; 10:1 (Pesticide:HSA)): 48.340%; LD50 [3]: 200 mg/kg; Toxicity [3]: Moderately
4 | CNC(=O)Oc1ccccc1C(C)C [Isoprocarb, isoprocarb] | 30154.52708 | −18.11 | -3.6472 | 2.175 ± 0.070 10^12 M^−1s^−1 | 2.175 ± 0.070 10^4 M^−1 | 0.669 ± 0.004 | -3.9873 | 2.758 ± 0.048 10^12 M^−1s^−1 | 2.758 ± 0.048 10^4 M^−1 | 0.689 ± 0.004 | -4.3274 | 2.338 | 3.015 ± 0.043 10^12 M^−1s^−1 | 3.015 ± 0.043 10^4 M^−1 | 0.712 ± 0.009 | quenched | 10.734 | 203.281 | 2.338 | 0.7116 | pKd ([1]; Ka (binding constant), 296 K): 2.69; pKd ([1]; Ka (binding constant), 303 K): 2.89; pKd ([1]; Ka (binding constant), 310 K): 3.05; α-helix contents ([2]; 5:1 (Pesticide:HSA)): 50.878%; α-helix contents ([2]; 10:1 (Pesticide:HSA)): 49.242%; LD50 [3]: 450 mg/kg; Toxicity [3]: Moderately
